Laboratory results from ChEMBL document CHEMBL1201862, “PubChem BioAssay data set” (2004).
Structures can show the parent of a compound that is named as a salt.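 The compound was tested at five concentrations on cells cultured in 96-well plates, with a 48-hour exposure period. GI50: concentration for 50% inhibition of growth.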 The source made the active and inactive calls. Rule as the data show it: active = GI50 up to about 1.1 µM and inactive = higher.

Key:
Assay in all cases: NCI anticancer screen, dose series, 48 h
NCI-H522 = tested on: NCI-H522
SK-MEL-5 = tested on: SK-MEL-5
ACHN = tested on: ACHN
LXFL 529 = tested on: LXFL 529
786-0 = tested on: 786-0
SNB-75 = tested on: SNB-75
SN12C = tested on: SN12C
HL-60 = tested on: HL-60
OVCAR-8 = tested on: OVCAR-8
SF-295 = tested on: SF-295
SF-539 = tested on: SF-539
A498 = tested on: A498
A549 = tested on: A549
HCC 2998 = tested on: HCC 2998
IGROV-1 = tested on: IGROV-1
U-251 = tested on: U-251
HCT-15 = tested on: HCT-15
SNB-19 = tested on: SNB-19
HOP-92 = tested on: HOP-92

CCOC(=O)CC(C)C1(C=O)CCCCC1=O (configuration not stated)
GI50 (NCI-H522): 90.4 µM (inactive)
GI50 (SK-MEL-5): > 100 µM (inactive)
GI50 (ACHN): > 100 µM (inactive)
GI50 (LXFL 529): > 100 µM (inactive)
GI50 (786-0): 31 µM (inactive)
GI50 (SNB-75): > 100 µM (inactive)
GI50 (SN12C): > 100 µM (inactive)
GI50 (HL-60): > 100 µM (inactive)
GI50 (OVCAR-8): > 100 µM (inactive)
GI50 (SF-295): > 100 µM (inactive)
GI50 (SF-539): > 100 µM (inactive)
GI50 (A498): > 100 µM (inactive)
GI50 (A549): > 100 µM (inactive)
GI50 (HCC 2998): > 100 µM (inactive)
GI50 (IGROV-1): > 100 µM (inactive)
GI50 (U-251): > 100 µM (inactive)
GI50 (HCT-15): 38 µM
GI50 (SNB-19): > 100 µM (inactive)

CC(=O)O[C@H]1CCC2[C@@H]3CCC4Nc5[nH]ncc5C[C@]4(C)C3CC[C@@]21C (some centres not stated)
GI50 (NCI-H522): 21.4 µM (inactive)
GI50 (SK-MEL-5): 24.5 µM (inactive)
GI50 (ACHN): > 100 µM (inactive)
GI50 (LXFL 529): 28.5 µM (inactive)
GI50 (786-0): > 100 µM (inactive)
GI50 (SNB-75): 54 µM (inactive)
GI50 (SN12C): > 100 µM (inactive)
GI50 (HL-60): 18.2 µM (inactive)
GI50 (OVCAR-8): 34.9 µM (inactive)
GI50 (SF-295): > 100 µM (inactive)
GI50 (SF-539): > 100 µM (inactive)
GI50 (A498): > 100 µM (inactive)
GI50 (A549): > 100 µM (inactive)
GI50 (HCC 2998): 30.2 µM (inactive)
GI50 (IGROV-1): > 100 µM (inactive)
GI50 (U-251): 80.2 µM (inactive)
GI50 (HCT-15): 44.6 µM
GI50 (SNB-19): 26.4 µM (inactive)

CC(NC(C)(C)C)C(=O)c1cccc(Cl)c1 (configuration not stated) [BUPROPION HYDROCHLORIDE]
GI50 (NCI-H522): > 100 µM (inactive)
GI50 (SK-MEL-5): > 100 µM (inactive)
GI50 (ACHN): > 100 µM (inactive)
GI50 (LXFL 529): > 100 µM (inactive)
GI50 (786-0): > 100 µM (inactive)
GI50 (SNB-75): > 100 µM (inactive)
GI50 (SN12C): > 100 µM (inactive)
GI50 (OVCAR-8): > 100 µM (inactive)
GI50 (SF-295): > 100 µM (inactive)
GI50 (SF-539): > 100 µM (inactive)
GI50 (A498): > 100 µM (inactive)
GI50 (A549): > 100 µM (inactive)
GI50 (HCC 2998): > 100 µM (inactive)
GI50 (IGROV-1): > 100 µM (inactive)
GI50 (U-251): > 100 µM (inactive)

CNC(=O)NCCCCC(NC(C)=O)C(=O)NCc1ccccc1 (configuration not stated)
GI50 (NCI-H522): > 100 µM (inactive)
GI50 (SK-MEL-5): > 100 µM (inactive)
GI50 (ACHN): > 100 µM (inactive)
GI50 (LXFL 529): > 100 µM (inactive)
GI50 (786-0): > 100 µM (inactive)
GI50 (SNB-75): 47.1 µM (inactive)
GI50 (SN12C): > 100 µM (inactive)
GI50 (OVCAR-8): > 100 µM (inactive)
GI50 (SF-295): > 100 µM (inactive)
GI50 (SF-539): > 100 µM (inactive)
GI50 (A498): > 100 µM (inactive)
GI50 (A549): > 100 µM (inactive)
GI50 (HCC 2998): > 100 µM (inactive)
GI50 (IGROV-1): > 100 µM (inactive)
GI50 (U-251): > 100 µM (inactive)
GI50 (HOP-92): > 100 µM (inactive)
GI50 (HCT-15): > 100 µM
GI50 (SNB-19): > 100 µM (inactive)

CC(=O)OCC(OC(C)=O)C(OC(C)=O)C(OC(C)=O)C(=O)CNn1c(-c2ccccc2Cl)nc2ccccc2c1=O (configuration not stated)
GI50 (NCI-H522): > 100 µM (inactive)
GI50 (SK-MEL-5): > 100 µM (inactive)
GI50 (ACHN): > 100 µM (inactive)
GI50 (LXFL 529): > 100 µM (inactive)
GI50 (786-0): > 100 µM (inactive)
GI50 (SNB-75): > 100 µM (inactive)
GI50 (SN12C): > 100 µM (inactive)
GI50 (HL-60): 38.5 µM (inactive)
GI50 (OVCAR-8): > 100 µM (inactive)
GI50 (SF-295): > 100 µM (inactive)
GI50 (SF-539): > 100 µM (inactive)
GI50 (A498): > 100 µM (inactive)
GI50 (A549): > 100 µM (inactive)
GI50 (U-251): > 100 µM (inactive)
GI50 (HCT-15): > 100 µM
GI50 (SNB-19): > 100 µM (inactive)

Nc1ccc(C(=O)CC2(O)C(=O)Nc3ccccc32)cc1 (configuration not stated)
GI50 (NCI-H522): 29.7 µM (inactive)
GI50 (SK-MEL-5): > 100 µM (inactive)
GI50 (ACHN): > 100 µM (inactive)
GI50 (LXFL 529): > 100 µM (inactive)
GI50 (786-0): > 100 µM (inactive)
GI50 (SNB-75): 92.9 µM (inactive)
GI50 (SN12C): > 100 µM (inactive)
GI50 (HL-60): 38.9 µM (inactive)
GI50 (OVCAR-8): > 100 µM (inactive)
GI50 (SF-295): > 100 µM (inactive)
GI50 (SF-539): > 100 µM (inactive)
GI50 (A498): > 100 µM (inactive)
GI50 (A549): > 100 µM (inactive)
GI50 (IGROV-1): > 100 µM (inactive)
GI50 (HOP-92): > 100 µM (inactive)
GI50 (HCT-15): > 100 µM
GI50 (SNB-19): > 100 µM (inactive)
